Measured values reported in US20110178165A1, “TETRAHYDROFURANYL SULFONAMIDES AND PHARMACEUTICAL COMPOSITIONS THEREOF” (Pfizer Inc., priority 2008, published 2011).

Tested on: AMPA receptors
Assay: AMPA ES cell FLIPR screen (AMPA potentiator assay)
Type: cell-based
Settings: murine ES cell-derived neurons, FLIPR Fluo-4 calcium, 32 uM AMPA challenge; * = geometric mean of 2 EC50 determinations
Experimental: The murine ES cell line used was E14-Sx1-16C, which has a targeted mutation in the Sox1 gene, a neuroectodermal marker, that offers G418 resistance when the Sox1 gene is expressed (Stem Cell Sciences). ES cells were maintained undifferentiated as previously described (Roach). […] ES cells were plated on gelatin-coated dishes (BD Biosciences), the media was changed daily and the cells were dissociated with 0.05% Trypsin EDTA (Invitrogen) every other day.
Embryoid Body Formation: Prior to embryoid body (EB) formation the ES cells were weaned from FBS onto Knockout Serum Replacement (KSR) (Invitrogen). To form EBs, ES cells were dissociated into a single cell suspension, then 3×10^6 cells were plated in bacteriology dishes (Nunc 4014) and grown as a suspension culture in NeuroEB-I medium that consisted of Knockout™ D-MEM (Invitrogen), supplemented with 10% KSR (Invitrogen), 0.2 mM L-Glutamine (Invitrogen), 0.1 mM MEM non-essential amino acids (Invitrogen), 30 μg/ml Gentamicin (Invitrogen), 1000 u/ml ESGRO (Chemicon), 0.1 mM 2-Mercaptoethanl (Sigma) and 150 ng/ml Transferrin (Invitrogen). The plates were put on a Stovall Belly Button shaker in an atmospheric oxygen incubator. The media was changed on day 2 of EB formation with NeuroEB-I and on day 4 with NeuroEB-II (NeuroEB-I plus 1 μg/ml mNoggin [R&D Systems]).
Neuronal Precursor Selection and Expansion: On day 5 of EB formation, EBs were dissociated with 0.05% Trypsin EDTA, and 4×10^6 cells/100 mm dish were plated on Laminin coated tissue culture dishes in Neuroll-G418 medium that consisted of a base medium of a 1:1 mixture of D-MEM/F12 supplemented with N2 supplements and NeuroBasal Medium supplemented with B27 supplement and 0.1 mM L-Glutamine (all from Invitrogen). The base medium was then supplemented with 10 ng/ml bFGF (Invitrogen), 1 μg/ml mNoggin, 500 ng/ml SHH—N, 100 ng/ml FGF-8b (R&D Systems), 1 μg/ml Laminin and 200 μg/ml G418 (Invitrogen) for selection of neuronal precursors expressing Sox-1. The plates were put in an incubator that contained 2% Oxygen and were maintained in these conditions. During the 6-day selection period, the Neuroll media was changed daily. On day 6, the surviving neuronal precursor foci were dissociated with 0.05% Trypsin EDTA and the cells were plated at a density of 1.5×10^6 cells/100 mm Laminin coated dish in Neuroll-G418 medium. The cells were dissociated every other day for expansion, and prepared for Cryopreservation at passage 3 or 4. The crypreservation medium contained 50% KSR, 10% Dimethyl Sulfoxide (DMSO) (Sigma) and 40% Neurol-G418I medium. Neuronal precursors were cryopreserved at a concentration of 4×10^6 cells/ml and 1 ml/cryovial in a controlled rate freezer overnight then transferred to an ultra-low freezer or liquid nitrogen for long-term storage. […]

EC50	Structure (SMILES)
> 31.6 µM	CC(C)S(=O)(=O)N[C@@H]1COC[C@@]1(O)c1ccc(-c2ccc(C#N)s2)cc1 [Example 2, N-{(3R,4R)-4-[4-(5-cyano-2-thienyl)phenyl]-4-hydroxytetrahydrofuran-3-yl}propane-2-sulfonamide]
1.19 µM	CC(C)S(=O)(=O)N[C@H]1COC[C@]1(O)c1ccc(-c2ccccc2)cc1 [Example 3, N-[(3S,4S)-4-biphenyl-4-yl-4-hydroxytetrahydrofuran-3-yl]propane-2-sulfonamide]
> 31.6 µM	CC(C)S(=O)(=O)N[C@@H]1COC[C@@]1(O)c1ccc(-c2ccccc2)cc1 (stereo in doubt) [Example 4, N-[(3R,4R)-4-biphenyl-4-yl-4-hydroxytetrahydrofuran-3-yl]propane-2-sulfonamide]
5.93 µM	CC(C)S(=O)(=O)N[C@H]1COC[C@]1(O)c1ccc(-c2ccc(C#N)s2)cc1 [Example 1, N-{(3S,4S)-4-[4-(5-cyano-2-thienyl)phenyl]-4-hydroxytetrahydrofuran-3-yl}propane-2-sulfonamide]
